Assay results published in patent US20240132431A1, “METHOD FOR ALKYLATING ACIDIC FUNCTIONAL GROUP” (Chugai Seiyaku Kabushiki Kaisha, priority 2021, published 2024).

Target: T1, Bcl-2 protein (Recombinant Human Bcl-2 Protein) (Homo sapiens, UniProt P10415)
T1 construct: purchased Novus NBP2-34889
Experiment: Binding evaluation of mixture library compounds to Bcl-2 using AS-MS (affinity selection mass spectrometry)
Conditions: AS-MS on the mixture of 1200 library compounds, ASMS Ratio(%)=(A−C)/B×100; for ASMS ratio (%) n = 1: replicate n = 1; for ASMS ratio (%) n = 2: replicate n = 2
How it was run: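 Readout is ASMS Ratio (%), (A−C)/B×100, from reversed-phase LC/MS of SEC-passed extracts, with protein-free unfiltered standard (B) and protein-free SEC blank (C). Recombinant human Bcl-2 at 20 μM final met ~1200 pooled compounds at […] each for 1 h, 23° C., dark, in Tris-HCl pH 7.4 buffer.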

T1 sequence (P10415 whole entry): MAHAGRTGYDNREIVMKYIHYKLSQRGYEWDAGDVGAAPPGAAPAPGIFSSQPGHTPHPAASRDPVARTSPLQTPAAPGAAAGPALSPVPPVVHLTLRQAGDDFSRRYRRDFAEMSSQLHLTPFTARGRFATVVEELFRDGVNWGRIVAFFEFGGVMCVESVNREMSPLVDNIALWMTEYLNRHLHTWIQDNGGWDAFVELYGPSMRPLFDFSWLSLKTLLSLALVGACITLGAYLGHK

| ASMS ratio (%) n = 1 [%] | ASMS ratio (%) n = 2 [%] | Structure (SMILES) |
| --- | --- | --- |
| 2.8 | 0.1 | CCOc1cncc(-c2cc(C(=O)N3CCN(c4ccc(C(=O)N(C)CC56CC7CC(CC(C7)C5)C6)nn4)CC3)cc(C(C)(C)C)c2)c1 [B3A016-01, N-(1-Adamantylmethyl)-6-[4-[3-tert-butyl-5-(5-ethoxypyridin-3-yl)benzoyl]piperazin-1-yl]-N-methylpyridazine-3-carboxamide] |
| 6.9 | −6.3 | CCOc1cccc(-c2cc(C(=O)N3CCN(c4ccc(C(=O)N(C)CC56CC7CC(CC(C7)C5)C6)nn4)CC3)cc(C(F)(F)F)c2)c1 [B3A017-01, N-(1-Adamantylmethyl)-6-[4-[3-(3-ethoxyphenyl)-5-(trifluoromethyl)benzoyl]piperazin-1-yl]-N-methylpyridazine-3-carboxamide] |
| 5.0 | 1.8 | CCOc1cncc(-c2cc(C(=O)N3CCN(c4ccc(C(=O)N(C)CC56CC7CC(CC(C7)C5)C6)nn4)CC3)cc(C(F)(F)F)c2)c1 [B3A018-01, N-(1-Adamantylmethyl)-6-[4-[3-(5-ethoxypyridin-3-yl)-5-(trifluoromethyl)benzoyl]piperazin-1-yl]-N-methylpyridazine-3-carboxamide] |
| 12.5 | −8.4 | CCOc1cccc(-c2cnn(-c3cc(C(=O)N4CCN(c5ccc(C(=O)N(C)CC67CC8CC(CC(C8)C6)C7)nn5)CC4)cc(C(F)(F)F)c3)c2)c1 [B3A021-01, N-(1-Adamantylmethyl)-6-[4-[3-[4-(3-ethoxyphenyl)pyrazol-1-yl]-5-(trifluoromethyl)benzoyl]piperazin-1-yl]-N-methylpyridazine-3-carboxamide] |
| 4.9 | 7.2 | CCOc1cncc(-c2cnn(-c3cc(C(=O)N4CCN(c5ccc(C(=O)N(C)CC67CC8CC(CC(C8)C6)C7)nn5)CC4)cc(C(F)(F)F)c3)c2)c1 [B3A022-01, N-(1-Adamantylmethyl)-6-[4-[3-[4-(5-ethoxypyridin-3-yl)pyrazol-1-yl]-5-(trifluoromethyl)benzoyl]piperazin-1-yl]-N-methylpyridazine-3-carboxamide] |
| 2.4 | 1.7 | CCOc1cccc(-c2csc(C(=O)N3CCN(c4ccc(C(=O)N(C)CC56CC7CC(CC(C7)C5)C6)cc4)CC3)c2)c1 [B3A023-01, N-(1-Adamantylmethyl)-4-[4-[4-(3-ethoxyphenyl)thiophene-2-carbonyl]piperazin-1-yl]-N-methylbenzamide] |
| 1.6 | −0.4 | CCOc1cncc(-c2csc(C(=O)N3CCN(c4ccc(C(=O)N(C)CC56CC7CC(CC(C7)C5)C6)cc4)CC3)c2)c1 [B3A024-01, N-(1-Adamantylmethyl)-4-[4-[4-(5-ethoxypyridin-3-yl)thiophene-2-carbonyl]piperazin-1-yl]-N-methylbenzamide] |
| 15.7 | −19.6 | CCOc1cccc(-c2ccc(C(=O)N3CCN(c4ccc(C(=O)N(C)CC56CC7CC(CC(C7)C5)C6)cc4)CC3)cc2C)c1 [B3A025-01, N-(1-Adamantylmethyl)-4-[4-[4-(3-ethoxyphenyl)-3-methylbenzoyl]piperazin-1-yl]-N-methylbenzamide] |
| 4.4 | 0.6 | CCOc1cncc(-c2ccc(C(=O)N3CCN(c4ccc(C(=O)N(C)CC56CC7CC(CC(C7)C5)C6)cc4)CC3)cc2C)c1 [B3A026-01, N-(1-Adamantylmethyl)-4-[4-[4-(5-ethoxypyridin-3-yl)-3-methylbenzoyl]piperazin-1-yl]-N-methylbenzamide] |
| −0.7 | −1.6 | CCOc1cccc(-c2ccc(C(=O)N3CCN(c4ccc(C(=O)N(C)CC56CC7CC(CC(C7)C5)C6)cc4)CC3)cc2F)c1 [B3A027-01, N-(1-Adamantylmethyl)-4-[4-[4-(3-ethoxyphenyl)-3-fluorobenzoyl]piperazin-1-yl]-N-methylbenzamide] |
| 9.8 | 1.6 | CCOc1cncc(-c2ccc(C(=O)N3CCN(c4ccc(C(=O)N(C)CC56CC7CC(CC(C7)C5)C6)cc4)CC3)cc2F)c1 [B3A028-01, N-(1-Adamantylmethyl)-4-[4-[4-(5-ethoxypyridin-3-yl)-3-fluorobenzoyl]piperazin-1-yl]-N-methylbenzamide] |
| 0.0 | 0.0 | CCOc1cccc(C#Cc2ccccc2C(=O)N2CCN(c3ccc(C(=O)N(C)CC45CC6CC(CC(C6)C4)C5)cc3)CC2)c1 [B3A029-01, N-(1-Adamantylmethyl)-4-[4-[2-[2-(3-ethoxyphenyl)ethynyl]benzoyl]piperazin-1-yl]-N-methylbenzamide] |
| 8.4 | −15.2 | CCOc1cncc(C#Cc2ccccc2C(=O)N2CCN(c3ccc(C(=O)N(C)CC45CC6CC(CC(C6)C4)C5)cc3)CC2)c1 [B3A030-01, N-(1-Adamantylmethyl)-4-[4-[2-[2-(5-ethoxypyridin-3-yl)ethynyl]benzoyl]piperazin-1-yl]-N-methylbenzamide] |
| 8.4 | −15.2 | CCOc1cccc(C#Cc2cncc(C(=O)N3CCN(c4ccc(C(=O)N(C)CC56CC7CC(CC(C7)C5)C6)cc4)CC3)c2)c1 [B3A031-01, N-(1-Adamantylmethyl)-4-[4-[5-[2-(3-ethoxyphenyl)ethynyl]pyridine-3-carbonyl]piperazin-1-yl]-N-methylbenzamide] |
| 9.1 | −5.1 | CCOc1cncc(C#Cc2cncc(C(=O)N3CCN(c4ccc(C(=O)N(C)CC56CC7CC(CC(C7)C5)C6)cc4)CC3)c2)c1 [B3A032-01, N-(1-Adamantylmethyl)-4-[4-[5-[2-(5-ethoxypyridin-3-yl)ethynyl]pyridine-3-carbonyl]piperazin-1-yl]-N-methylbenzamide] |
| 1.1 | −0.6 | CCOc1cccc(-c2ccccc2CCC(=O)N2CCN(c3ccc(C(=O)N(C)CC45CC6CC(CC(C6)C4)C5)cc3)CC2)c1 [B3A033-01, N-(1-Adamantylmethyl)-4-[4-[3-[2-(3-ethoxyphenyl)phenyl]propanoyl]piperazin-1-yl]-N-methylbenzamide] |
| 1.3 | −0.6 | CCOc1cncc(-c2ccccc2CCC(=O)N2CCN(c3ccc(C(=O)N(C)CC45CC6CC(CC(C6)C4)C5)cc3)CC2)c1 [B3A034-01, N-(1-Adamantylmethyl)-4-[4-[3-[2-(5-ethoxypyridin-3-yl)phenyl]propanoyl]piperazin-1-yl]-N-methylbenzamide] |
| 9.7 | 4.4 | CCOc1cccc(-c2ccc(C(=O)N3CCN(c4ccc(C(=O)N(C)CC56CC7CC(CC(C7)C5)C6)cc4)CC3)c3ccccc23)c1 [B3A035-01, N-(1-Adamantylmethyl)-4-[4-[4-(3-ethoxyphenyl)naphthalene-1-carbonyl]piperazin-1-yl]-N-methylbenzamide] |
| 2.8 | −3.3 | CCOc1cncc(-c2ccc(C(=O)N3CCN(c4ccc(C(=O)N(C)CC56CC7CC(CC(C7)C5)C6)cc4)CC3)c3ccccc23)c1 [B3A036-01, N-(1-Adamantylmethyl)-4-[4-[4-(5-ethoxypyridin-3-yl)naphthalene-1-carbonyl]piperazin-1-yl]-N-methylbenzamide] |
